According to publication PMC8151276, “An Integrated Approach toward NanoBRET Tracers for Analysis of GPCR Ligand Engagement” (Molecules, 2021):

Tests used:
AVPR1A = biological target: T1, AVPR1A (Homo sapiens, UniProt P37288); assay: NanoBRET screen HiBiT-AVPR1A in HEK293; format: binding
T1 construct: purchased Promega (in-house HiBiT-GPCR construct library, NanoBRET)
Description: (§1) Each tracer candidate was screened across the entire library of HiBiT-GPCR constructs using NanoBRET as the detection modality. As depicted in Figure 4A, the specificity of interactions was evaluated through decrease in BRET due to competitive displacement of a bound tracer by excess parental compound. Each tracer was analyzed for binding to each HiBiT-GPCR fusion in the absence and in the presence of competing parental compound. Briefly, HEK293 cells were transfected with HiBiT-GPCR constructs diluted into promoterless DNA to reduce expression and maximize translocation to the cell surface. Each tracer candidate was then screened at concentrations of 1 μM and 0.1 μM across cells expressing these fusions. Cells were treated for 1.5 h with tracer either alone or in the presence of 20 μM competing parental compound (i.e., control). BRET was measured upon addition of purified LgBiT and subsequent complementation with HiBiT genetically fused to a GPCR. The specificity of interactions was assessed through a decrease in BRET signal due to competitive displacement of the bound tracer. To further gauge the robustness of these interactions, the fold response over the control (i.e., BRETtracer/BRETcontrol) was calculated. We chose a 1.5-fold response, which translates to ≥7-fold signal over noise as the minimal threshold required to score an interaction as positive.
(§2) HiBiT-GPCR DNA constructs were diluted in 10 mM Tris pH 8 to a final concentration of 0.01 μg/μL, arrayed in 96-well plates and stored at −20 °C. For transfection, HEK293 cells were suspended in Opti-MEM (without phenol red) supplemented with 2% fetal bovine serum (Seradigm) and 100 units/mL penicillin–streptomycin (Gibco) at a final concentration of 220,000 cells/mL and dispensed into white 96-well plates at 90 μL/well. Subsequent transfections and screens were carried using an Agilent Bravo Automated Liquid Handling Platform. First, the 96-well HiBiT DNA arrays were diluted 25-fold in Opti-MEM (without serum or phenol red) to a final concentration of 0.0004 μg/μL and 20 μL of the diluted DNAs were transferred into new 96-well plates. Next, promoterless carrier DNA (1 μg/μL) was diluted 25-fold (0.04 μg/μL) and then dispensed into the diluted arrays at 20 μL/well. Following brief mixing, Viafect transfection reagent (Promega) diluted 16-fold into Opti-MEM was dispensed into the plates at 40 μL/well. After mixing by pipetting, plates were incubated for 10 min on the pipetting station deck. The DNA-transfection reagent complexes were then added to plates containing cells. To facilitate the screen, 10 μL of DNA-transfection reagent complexes were added in duplicates to the top 4 and bottom 4 rows, resulting in two identical 48-well arrays per plate. Plates with transfected cells were incubated for 18–20 h at 37 °C/5% CO2. A screen of each tracer across the entire library using two different concentrations requires duplicate plates of transfected cells. Depending on the number of tracers being screened, transfections can be scaled up using the same ratios. The next day, for each tracer, four 20× screening solutions in tracer dilution buffer (Promega) were prepared: two duplicates at final concentration of 20 μM and two duplicates at a final concentration of 2 μM. […] The four resulting solutions were diluted 4-fold in Opti-MEM without serum or phenol red to generate 5× solutions (5 µM and 0.5 µM tracer +/− 100 μM competing compound). To screen the library, a BioTek MultiFlo FX liquid dispenser was used to dispense 22.5 µL of tracer solution to the top 4 rows and 22.5 µL tracer + competing compound solution to the 4 bottom rows. Plates were briefly mixed on an orbital shaker and incubated for 1.5 h at room temperature. […] Plates were briefly mixed on an orbital shaker and incubated for 15 min to allow complementation.

OPRM1 = biological target: T2, OPRM1 (Homo sapiens, UniProt P35372); assay: NanoBRET screen HiBiT-OPRM1 in HEK293; format: binding
T2 construct: purchased Promega (in-house HiBiT-GPCR construct library, NanoBRET)
Description: as §1, §2

[1] = tracer at 0.1μM, listed as amitriptyline-b-2-NB590
[2] = tracer at 1μM, listed as amitriptyline-b-2-NB590

T1 sequence (P37288 whole entry): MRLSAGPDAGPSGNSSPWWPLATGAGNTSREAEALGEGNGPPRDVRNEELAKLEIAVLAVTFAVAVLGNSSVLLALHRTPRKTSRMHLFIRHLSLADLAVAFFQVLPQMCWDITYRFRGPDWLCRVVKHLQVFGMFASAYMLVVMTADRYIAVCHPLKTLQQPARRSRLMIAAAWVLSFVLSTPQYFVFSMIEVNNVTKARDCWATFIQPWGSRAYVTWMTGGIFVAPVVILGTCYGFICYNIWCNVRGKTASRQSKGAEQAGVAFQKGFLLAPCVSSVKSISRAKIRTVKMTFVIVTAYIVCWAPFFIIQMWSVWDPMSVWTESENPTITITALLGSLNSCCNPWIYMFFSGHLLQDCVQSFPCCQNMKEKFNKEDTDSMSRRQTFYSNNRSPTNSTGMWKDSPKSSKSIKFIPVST
T2 sequence (P35372 whole entry): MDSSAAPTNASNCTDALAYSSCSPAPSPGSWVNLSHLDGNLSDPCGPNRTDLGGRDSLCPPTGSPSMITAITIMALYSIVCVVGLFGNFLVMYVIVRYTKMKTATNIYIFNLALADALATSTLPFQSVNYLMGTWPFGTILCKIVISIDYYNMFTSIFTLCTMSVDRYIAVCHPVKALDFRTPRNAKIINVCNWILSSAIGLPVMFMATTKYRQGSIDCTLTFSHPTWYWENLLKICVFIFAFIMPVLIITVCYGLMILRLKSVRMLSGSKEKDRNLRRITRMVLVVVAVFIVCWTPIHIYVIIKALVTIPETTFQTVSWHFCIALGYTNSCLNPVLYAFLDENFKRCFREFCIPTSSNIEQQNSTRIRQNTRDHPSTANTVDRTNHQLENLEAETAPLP

## N#CN=C(NCCCOc1cccc(CN2CCCCC2)c1)NCCNC(=O)CCOCCOCCOCCOCCNC(=O)CCc1ccc2n1[B-](F)(F)[N+]1=C(c3ccc[nH]3)C=CC1=C2 [Aminopotentidine-2-NB590]
AVPR1A; AVPR1A, tracer 0.1μM
  NanoBRET Fold Response: 0.93
AVPR1A; AVPR1A, tracer 1μM
  NanoBRET Fold Response: 0.97
OPRM1; OPRM1, tracer 0.1μM
  NanoBRET Fold Response: 1.02
OPRM1; OPRM1, tracer 1μM
  NanoBRET Fold Response: 1.01

## Cc1nc2n(c(=O)c1CCN1CCC(c3noc4cc(F)ccc34)CC1)CCCC2OC(=O)NCCOCCOCCOCCOCCNC(=O)CCc1ccc2n1[B-](F)(F)[N+]1=C(c3ccc[nH]3)C=CC1=C2 (stereo not drawn) [Risperidone-2-NB590]
AVPR1A; AVPR1A, tracer 0.1μM
  NanoBRET Fold Response: 0.90
AVPR1A; AVPR1A, tracer 1μM
  NanoBRET Fold Response: 0.87
OPRM1; OPRM1, tracer 0.1μM
  NanoBRET Fold Response: 0.92
OPRM1; OPRM1, tracer 1μM
  NanoBRET Fold Response: 0.96

## CN(C)CCC=C1c2ccccc2CCc2ccc(C(=O)NCCNC(=O)CCOCCOCCOCCOCCNC(=O)CCc3ccc4n3[B-](F)(F)[N+]3=C(c5ccc[nH]5)C=CC3=C4)cc21 [Amitriptyline-b-2-NB590]
AVPR1A; [1]
  NanoBRET Fold Response: 1.10
AVPR1A; [2]
  NanoBRET Fold Response: 0.77
OPRM1; [1]
  NanoBRET Fold Response: 0.87
OPRM1; [2]
  NanoBRET Fold Response: 0.87
